{"source": "patent US12459952B2", "about": "“TREM2 modulators” (Muna Therapeutics ApS, priority 2024, dated 2025)", "molecular_target": "T1, Human TREM2 (Homo sapiens, UniProt Q9NZC2)", "T1 construct": "expressed in transfected cells", "T1 sequence (Q9NZC2 19-230)": "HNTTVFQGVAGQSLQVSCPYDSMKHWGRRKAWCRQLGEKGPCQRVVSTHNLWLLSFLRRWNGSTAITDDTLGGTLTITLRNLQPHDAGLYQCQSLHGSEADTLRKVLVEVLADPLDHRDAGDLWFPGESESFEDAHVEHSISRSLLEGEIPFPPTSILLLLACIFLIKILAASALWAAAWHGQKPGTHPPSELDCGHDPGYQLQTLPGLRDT", "T1 sequence (O43914 22-113 partner)": "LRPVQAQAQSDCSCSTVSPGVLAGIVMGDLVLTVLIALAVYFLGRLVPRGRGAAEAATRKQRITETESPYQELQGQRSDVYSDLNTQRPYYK", "experiment": "Human TREM2 cellular phospho-Syk AlphaLISA assay in HEK293/DAP12+TREM2 stable cell line", "format": "cell-based", "details": "HEK293/DAP12+TREM2 cells; for Emax: maximal response relative to the maximal response of the reference agonist, phospho-Syk AlphaLISA; for EC50: phospho-Syk (Tyr525/526) AlphaLISA signal, 30 min incubation", "description": "Human TREM2, in vitro Measurement of Triggering Receptor Expressed on Myeloid Cells 2 activity using cellular phosphorylation of Spleen Tyrosine Kinase (“Syk”) Assay\nHEK-293 cells were co-transfected with separate plasmids encoding TREM2 and DAP12 to generate a stable cell line. After antibiotic selection, functional clone pool analysis and two successive limiting dilutions, the final clone “HEK293/DAP12+TREM2” underwent a qPCR analysis and a pharmacological validation.\nTREM2 signaling through DAP12 was monitored in the HEK293/DAP12+TREM2 stable cell line by measuring the phosphorylation levels of the Syk kinase using the commercially available AlphaLISA SureFire Ultra p-SYK (Tyr525/526) Assay Kit (PerkinElmer #ALSU-PSYK), based on the Perkin Elmer AlphaScreen/AlphaLISA technology.\nCompounds are transferred to the test plate and tested in full dose response, 8 concentrations in quadruplicate data points. Compound serial dilutions were performed at Cybi-Felix instrument in 100% DMSO and the dose response curves were assembled in automated fashion in 384MPT at Hamilton STARlet instrument. All the stock solutions were prepared at 20 mM in 100% DMSO. For compounds testing, the starting concentration was 100 μM, dilution steps 1:6. A different concentration's range was adapted for compound's activity based on the preliminary results. Finally, a 384MPT reformatted for all compounds at 8 concentrations, quadruplicates, was used as “mother to child” process with a CyBi@-Well dispenser in which 1 μL of each compound was moved into a destination plate pre-filled with […] of EMEM cell culture medium (BIOWHITTAKER_cat.BE12-125F), thus obtaining 3× concentrated compounds working solution. In columns 1-2 and 23-24 the control wells were added. In particular, dose response curves of a reference control agonist were included in column 1 and 24 as reference control agonist (Reference control agonists used include Human TREM2 polyclonal Antibody AF1828: R&D Systems; Human TREM2 monoclonal Antibody MAB1828: R&D Systems). The dose response curves were tested starting at 30 μM, dilution step 1:6. Both “source” compound plate and “destination” compound plate were barcoded and a relationship between the two plates was thus generated.\nHEK293/DAP12+TREM2 cells were cultured in EMEM medium supplemented with IX Penicillin/Streptomycin (BIOWHITTAKER_cat.DE17-602E), ULTRAGLUTAMINE I 200 mM, 10% Fetal Bovine Serum plus antibiotics referred to as “HEK293 Culture Medium”. The day before the experiment, cells were detached by gentle wash with DPBS, followed by 5 min incubation at 37° C. with Trypsin solution. Cells were then diluted in HEK293 Culture Medium without antibiotics, counted and seeded into 384-well poly-D-Lysine coated microplates black/clear bottom (GREINER 781946) at a density of 10,000 cells/well in 25 μL/well by the use of a MATRIX WellMate dispenser. Plates were placed into a humidified cell culture incubator at 37° C. with 5% CO2 until the experimental day. 20-24 hours after seeding mature medium was removed and replaced with 10 μL/well of EMEM cell medium supplemented with 0.1% Pluronic F-68 non-ionic surfactant (Thermofisher, 24040032), referred to as “Assay Buffer”, using the CyBi@-Well instrument. Then 5 μL/well of Assay Buffer containing 3× concentrated test compounds or the reference control agonist (in 0.5% final DMSO concentration) were added to the cells with the CyBi@-Well instrument. Cell plates were incubated for 30 min into a humidified cell culture incubator at 37° C. with 5% CO2, then the medium was removed by manually discard. 20 μL/well of lysis buffer were dispensed using the CyBi@-Well instrument and plates were incubated for 10 min at room temperature on a plate shaker (350 rpm). Then, 10 μL/well of lysate were transferred to the Alpha plates.\nThe CyBi@-Well instrument was used to dispense 5 μL/well of AlphaLISA Acceptor Bead Solution in IX Immunoassay buffer (Perkin Elmer AL000F). […]", "data": [{"smiles": "COc1ccc(-c2nc(N3CC(Oc4cnn(C5CC5)c4)C3)nc3c(=O)n(C)c(C(F)(F)F)nc23)c(F)c1", "note": "[Example 36, 6-(3-((1-cyclopropyl-1H-pyrazol-4-yl)oxy)azetidin-1-yl)-8-(2-fluoro-4-methoxyphenyl)-3-methyl-2-(trifluoromethyl)pyrimido[5,4-d]pyrimidin-4(3H)-one]", "values": [{"measurement": "Emax", "value": "< 75", "unit": "%"}, {"measurement": "EC50", "value": "100 to 1000", "unit": "nM"}]}, {"smiles": "Cn1c(C(F)(F)F)nc2c(-c3ccc(C#N)cc3F)nc(N3CC(Oc4cnn(C5CC5)c4)C3)nc2c1=O", "note": "[Example 1, 4-(2-(3-((1-cyclopropyl-1H-pyrazol-4-yl)oxy)azetidin-1-yl)-7-methyl-8-oxo-6-(trifluoromethyl)-7,8-dihydropyrimido[5,4-d]pyrimidin-4-yl)-3-fluorobenzonitrile]", "values": [{"measurement": "Emax", "value": "75 to 110", "unit": "%"}, {"measurement": "EC50", "value": "< 10", "unit": "nM"}]}, {"smiles": "Cc1nnc(OC2CN(c3nc(-c4ccc(C#N)cc4F)c4nc(C(F)(F)F)n(C)c(=O)c4n3)C2)s1", "note": "[Example 3, 3-fluoro-4-(7-methyl-2-(3-((5-methyl-1,3,4-thiadiazol-2-yl)oxy)azetidin-1-yl)-8-oxo-6-(trifluoromethyl)-7,8-dihydropyrimido[5,4-d]pyrimidin-4-yl)benzonitrile]", "values": [{"measurement": "Emax", "value": "< 75", "unit": "%"}, {"measurement": "EC50", "value": "100 to 1000", "unit": "nM"}]}, {"smiles": "Cn1c(C(F)(F)F)nc2c(-c3ccc(C#N)cc3F)nc(N3CC(Oc4ccnc(OC(F)F)c4)C3)nc2c1=O", "note": "[Example 24, 4-(2-(3-((2-(difluoromethoxy)pyridin-4-yl)oxy)azetidin-1-yl)-7-methyl-8-oxo-6-(trifluoromethyl)-7,8-dihydropyrimido[5,4-d]pyrimidin-4-yl)-3-fluorobenzonitrile]", "values": [{"measurement": "Emax", "value": "75 to 110", "unit": "%"}, {"measurement": "EC50", "value": "10 to 100", "unit": "nM"}]}, {"smiles": "Cn1c(C(F)(F)F)nc2c(-c3ccc(C#N)cc3F)nc(N3CC(Oc4cnccn4)C3)nc2c1=O", "note": "[Example 5, 3-fluoro-4-(7-methyl-8-oxo-2-(3-(pyrazin-2-yloxy)azetidin-1-yl)-6-(trifluoromethyl)-7,8-dihydropyrimido[5,4-d]pyrimidin-4-yl)benzonitrile]", "values": [{"measurement": "Emax", "value": "< 75", "unit": "%"}, {"measurement": "EC50", "value": "10 to 100", "unit": "nM"}]}, {"smiles": "Cn1c(C(F)(F)F)nc2c(-c3ccc(F)cc3F)nc(N3CC(Oc4cnn(C5CC5)c4)C3)cc2c1=O", "note": "[Example 40, 6-(3-((1-cyclopropyl-1H-pyrazol-4-yl)oxy)azetidin-1-yl)-8-(2,4-difluorophenyl)-3-methyl-2-(trifluoromethyl)pyrido[3,4-d]pyrimidin-4(3H)-one]", "values": [{"measurement": "Emax", "value": "< 75", "unit": "%"}, {"measurement": "EC50", "value": "100 to 1000", "unit": "nM"}]}, {"smiles": "COc1ccc(-c2nc(N3CC(Oc4cnn(C5CC5)c4)C3)nc3c(=O)n(C)c(C(F)(F)F)nc23)cn1", "note": "[Example 37, 6-(3-((1-cyclopropyl-1H-pyrazol-4-yl)oxy)azetidin-1-yl)-8-(6-methoxypyridin-3-yl)-3-methyl-2-(trifluoromethyl)pyrimido[5,4-d]pyrimidin-4(3H)-one]", "values": [{"measurement": "Emax", "value": "75 to 110", "unit": "%"}, {"measurement": "EC50", "value": "100 to 1000", "unit": "nM"}]}, {"smiles": "Cn1c(C(F)(F)F)nc2c(-c3ccc(C#N)cc3F)nc(N3CC(Oc4ccnc(C(F)(F)F)c4)C3)nc2c1=O", "note": "[Example 25, 3-fluoro-4-(7-methyl-8-oxo-6-(trifluoromethyl)-2-(3-((2-(trifluoromethyl)pyridin-4-yl)oxy)azetidin-1-yl)-7,8-dihydropyrimido[5,4-d]pyrimidin-4-yl)benzonitrile]", "values": [{"measurement": "Emax", "value": "75 to 110", "unit": "%"}, {"measurement": "EC50", "value": "10 to 100", "unit": "nM"}]}, {"smiles": "Cn1c(C(F)(F)F)nc2c(-c3ccc(C#N)cc3F)nc(N3CC(Oc4cnc(C#N)cn4)C3)nc2c1=O", "note": "[Example 7, 5-((1-(4-(4-cyano-2-fluorophenyl)-7-methyl-8-oxo-6-(trifluoromethyl)-7,8-dihydropyrimido[5,4-d]pyrimidin-2-yl)azetidin-3-yl)oxy)pyrazine-2-carbonitrile]", "values": [{"measurement": "Emax", "value": "< 75", "unit": "%"}, {"measurement": "EC50", "value": "100 to 1000", "unit": "nM"}]}, {"smiles": "Cn1c(C(F)(F)F)nc2c(-c3ccc(C#N)cc3F)nc(N3CC(Oc4cnn(CC(F)F)c4)C3)nc2c1=O", "note": "[Example 17, 4-(2-(3-((1-(2,2-difluoroethyl)-1H-pyrazol-4-yl)oxy)azetidin-1-yl)-7-methyl-8-oxo-6-(trifluoromethyl)-7,8-dihydropyrimido[5,4-d]pyrimidin-4-yl)-3-fluorobenzonitrile]", "values": [{"measurement": "Emax", "value": "75 to 110", "unit": "%"}, {"measurement": "EC50", "value": "100 to 1000", "unit": "nM"}]}, {"smiles": "Cn1c(C(F)(F)F)nc2c(-c3ccc(C#N)nc3)nc(N3CC(Oc4cnn(C5CC5)c4)C3)nc2c1=O", "note": "[Example 38, 5-(2-(3-((1-cyclopropyl-1H-pyrazol-4-yl)oxy)azetidin-1-yl)-7-methyl-8-oxo-6-(trifluoromethyl)-7,8-dihydropyrimido[5,4-d]pyrimidin-4-yl)picolinonitrile]", "values": [{"measurement": "Emax", "value": "75 to 110", "unit": "%"}, {"measurement": "EC50", "value": "100 to 1000", "unit": "nM"}]}, {"smiles": "Cc1cc(CC2CN(c3nc(-c4ccc(F)cc4F)c4nc(C(F)(F)F)n(C)c(=O)c4n3)C2)ccn1", "note": "[Example 34, 8-(2,4-difluorophenyl)-3-methyl-6-(3-((2-methylpyridin-4-yl)methyl)azetidin-1-yl)-2-(trifluoromethyl)pyrimido[5,4-d]pyrimidin-4(3H)-one]", "values": [{"measurement": "Emax", "value": "< 75", "unit": "%"}, {"measurement": "EC50", "value": "10 to 100", "unit": "nM"}]}, {"smiles": "Cc1ncc(OC2CN(c3nc(-c4ccc(C#N)cc4F)c4nc(C(F)(F)F)n(C)c(=O)c4n3)C2)cn1", "note": "[Example 28, 3-fluoro-4-(7-methyl-2-(3-((2-methylpyrimidin-5-yl)oxy)azetidin-1-yl)-8-oxo-6-(trifluoromethyl)-7,8-dihydropyrimido[5,4-d]pyrimidin-4-yl)benzonitrile]", "values": [{"measurement": "Emax", "value": "< 75", "unit": "%"}, {"measurement": "EC50", "value": "100 to 1000", "unit": "nM"}]}]}
